Values joined by “and” are separate entries in the source; they are usually repeats but may differ in a detail not shown here. Equal entries are not always repeated.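 Each compound was tested at five concentrations against cells in 96-well plates for 48 hours. GI50 = concentration required for 50% inhibition of growth. Definition used: TGI = concentration required for complete inhibition of growth.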
Columns and labels:
Experiment in all cases: growth of human tumour cells (NCI), 48 h
SF-539 CNS = test system: SF-539 CNS
NCI/ADR-RES ovarian = test system: NCI/ADR-RES ovarian
UACC-257 melanoma = test system: UACC-257 melanoma
HCT-15 colon = test system: HCT-15 colon
A498 renal = test system: A498 renal
BT-549 breast = test system: BT-549 breast
U251 CNS = test system: U251 CNS
SN12C renal = test system: SN12C renal
NCI-H226 lung = test system: NCI-H226 lung
HCT-116 colon = test system: HCT-116 colon

| Structure (SMILES) | TGI (SF-539 CNS) | TGI (NCI/ADR-RES ovarian) [µM] | TGI (UACC-257 melanoma) | TGI (HCT-15 colon) | TGI (A498 renal) [µM] | TGI (BT-549 breast) [µM] | TGI (U251 CNS) | TGI (SN12C renal) | TGI (NCI-H226 lung) | TGI (HCT-116 colon) | GI50 (SF-539 CNS) [µM] | GI50 (NCI/ADR-RES ovarian) [µM] | GI50 (UACC-257 melanoma) [µM] | GI50 (HCT-15 colon) [µM] | GI50 (A498 renal) [µM] | GI50 (BT-549 breast) [µM] | GI50 (U251 CNS) [µM] | GI50 (SN12C renal) [µM] | GI50 (NCI-H226 lung) [µM] | GI50 (HCT-116 colon) [µM] |
| --- | --- | --- | --- | --- | --- | --- | --- | --- | --- | --- | --- | --- | --- | --- | --- | --- | --- | --- | --- | --- |
| Clc1ccccc1C(Nc1cnccn1)Nc1cnccn1 | > 100 µM | > 100 | > 100 µM | > 100 µM | > 100 | > 100 | > 100 µM | > 100 µM | > 100 µM | > 100 µM |  |  |  |  |  |  |  |  |  |  |
| COc1ccc(-n2c(=S)sc3c(Cl)nc(C)nc32)c(OC)c1 | 4.55 µM | 72.9 | 5.62 µM | 5.43 µM | 23.8 | 4.28 | 3.65 µM | 9.14 µM | 12 µM | 3.71 µM | 2.07 | 13.2 | 2.35 | 1.96 | 11.5 | 1.99 | 1.91 | 2.85 | 3.22 | 1.83 |
| C[C@@H]1C[C@@H]([C@H](O)CC2CC(=O)NC(=O)C2)C(=O)[C@@H](C)C1 | 2.7 µM and 0.838 µM | 9.16 | 1.65 µM and 1.03 µM | 15.9 µM and 9.96 µM |  | 9.01 | 2.67 µM and 12.6 µM | 7.38 µM and 0.793 µM | 7.26 µM and 4.86 µM | 4.35 µM and 1.42 µM | 0.214 | 0.358 | 0.248 | 0.284 | 0.854 | 0.927 | 0.237 | 0.106 | 0.326 | 0.197 |
| Cc1cccc(C2NC(=O)c3ccccc3N2)c1 (centres undefined) | 9.07 µM | > 47.2 | > 100 µM | > 100 µM | > 73.4 | > 100 | > 31.6 µM | > 100 µM | 50.5 µM | > 100 µM |  |  |  |  |  |  |  |  |  |  |
| COc1c2ccoc2nc2c(OC)c(OCC(O)C(C)(C)O)ccc12 (centres undefined) | > 100 µM | > 100 | > 100 µM | > 100 µM | > 100 | > 100 | > 100 µM | > 100 µM | > 100 µM | > 100 µM |  |  |  |  |  |  |  |  |  |  |
| CC1=NN(c2cccc(Cl)c2)C(=O)/C1=C\c1cn(CC(O)CN2CCCCC2)c2ccccc12 (centres undefined) | 26.6 µM | 20.7 | 4.62 µM | 6.7 µM | 41.6 | 29.5 | 14 µM | 35.3 µM | 50.4 µM | 3.35 µM | 10.2 | 4.79 | 2.35 | 2.42 | 14.6 | 15 | 3.64 | 12.3 | 22.5 | 1.74 |
| COc1cc(/C=N/NC(=O)c2cnn3c2NC(c2ccccc2)C3)ccc1OC1CCCC1 (centres undefined) | 1.99 µM | 4.35 | 12 µM | 10.8 µM | 2.28 | 5.74 | 5.91 µM | 9.61 µM | 6.12 µM | 3.46 µM | 0.537 | 0.884 | 1.45 | 0.5 | 0.407 | 1.46 | 0.92 | 1.85 | 1.64 | 0.518 |
| Oc1ccc(Cl)cc1C=Nc1cnc2ccccc2c1 | 45.8 µM | > 100 | 45.3 µM | > 100 µM | > 100 | > 100 | > 70.6 µM | > 100 µM | > 100 µM | > 100 µM |  |  |  |  |  |  |  |  |  |  |
| N#C/C(=C\c1ccc2[nH]ccc2c1)C(=O)NCCCCNC(=O)/C(C#N)=C/c1ccc2[nH]ccc2c1 | > 31.6 µM | > 10 | > 31.6 µM | > 31.6 µM | > 31.6 | > 10 | > 31.6 µM | > 31.6 µM | > 31.6 µM | > 31.6 µM |  |  |  |  |  |  |  |  |  |  |

Source: PubChem BioAssay (NCI)
